Data from patent publication US20240368181A1, “QUINOXALINE DERIVATIVES AND USES THEREOF” (Black Diamond Therapeutics, Inc., priority 2021, published 2024).

Tests used:
Type in all cases: cell-based
[1] = tested on: SNU-16 (FGFR2-amplification) cells; test: cell proliferation assay (CellTiterGlo), SNU-16 cells; conditions: Homo sapiens, 72 hours
Summary of the method: (§1)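 IC50 for growth inhibition, normalized to DMSO-treated cells as viable. Cell number was estimated from ATP luminescence (CellTiterGlo) following incubation with compound at varying concentrations.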

[2] = tested on: UM-UC-14 (FGFR3-S249C) cells; test: cell proliferation assay (CellTiterGlo), UM-UC-14 cells
Summary of the method: as §1

[3] = tested on: DMS-114 (FGFR1 overexpression) cells; test: cell proliferation assay (CellTiterGlo), DMS-114 cells; conditions: Homo sapiens
Summary of the method: as §1

[4] = tested on: RT-112 (FGFR3-Tacc3 fusion) cells; test: cell proliferation assay (CellTiterGlo), RT-112 cells; conditions: Homo sapiens, RT-112, RT112 cells, 72 hours
Summary of the method: as §1

Row | SMILES | IC50 [1] | IC50 ([2]; UMUC14, 72 h) | IC50 ([3]; DMS-114, 72 h) | IC50 [4] | IC50 ([2]; UMUC14, 72 hours) | IC50 ([3]; 72 hours)
1 | Cc1nc2ccc(Oc3ccc4ncc(-c5cnn(CC6CC(F)(F)C6)c5)nc4c3C)cc2[nH]1 [Compound 302] | 100 to 400 nM | 100 to 400 nM | ≥ 400 nM | 100 to 400 nM | – | –
2 | Cc1nc2ccc(Oc3ccc4ncc(-c5cnn(C6CCN(CC(F)(F)F)CC6)c5)nc4c3Cl)cc2[nH]1 [Compound 303] | 20 to 100 nM | 20 to 100 nM | ≥ 400 nM | 20 to 100 nM | – | –
3 | Cc1nc2ccc(Oc3ccc4ncc(-c5cnn(CCC6CCNCC6)c5)nc4c3Cl)cc2[nH]1 [Compound 304] | 100 to 400 nM | 20 to 100 nM | ≥ 400 nM | 20 to 100 nM | – | –
4 | Cc1nc2ccc(Oc3ccc4ncc(-c5cnn(CCC6CCN(C)CC6)c5)nc4c3Cl)cc2[nH]1 [Compound 305] | < 20 nM | < 20 nM | 100 to 400 nM | < 20 nM | – | –
5 | Cc1nc2ccc(Oc3ccc4ncc(-c5cnn(CC(=O)N6CCC(O)C6)c5)nc4c3Cl)cc2[nH]1 (centres unmarked) [Compound 306] | 100 to 400 nM | 100 to 400 nM | ≥ 400 nM | 20 to 100 nM | – | –
6 | Cc1nc2ccc(Oc3ccc4ncc(-c5cnn(C[C@@H]6CCS(=O)(=O)C6)c5)nc4c3Cl)cc2[nH]1 [Compound 307] | < 20 nM | 20 to 100 nM | 100 to 400 nM | < 20 nM | – | –
7 | Cc1nc2ccc(Oc3ccc4ncc(-c5cnn(CC6CC(=O)C6)c5)nc4c3Cl)cc2[nH]1 [Compound 308] | 20 to 100 nM | 20 to 100 nM | ≥ 400 nM | 20 to 100 nM | – | –
8 | Cc1nc2ccc(Oc3ccc4ncc(-c5cnn(C6CC(N7CC(O)C7)C6)c5)nc4c3Cl)cc2[nH]1 (centres unmarked) [Compound 309] | 20 to 100 nM | 20 to 100 nM | 100 to 400 nM | 20 to 100 nM | – | –
9 | Cc1nc2ccc(Oc3ccc4ncc(-c5cnn(CC6CN(CC#N)C6)c5)nc4c3Cl)cc2[nH]1 [Compound 310] | 20 to 100 nM | 20 to 100 nM | ≥ 400 nM | 20 to 100 nM | – | –
10 | Cc1nc2ccc(Oc3ccc4ncc(-c5cnn(C[C@H]6CCS(=O)(=O)C6)c5)nc4c3Cl)cc2[nH]1 [Compound 311] | < 20 nM | 20 to 100 nM | 100 to 400 nM | < 20 nM | – | –
11 | Clc1c(Oc2ccn3cncc3c2)ccc2ncc(-c3cnn(CC4CCN(C5COC5)CC4)c3)nc12 [Compound 312] | ≥ 400 nM | ≥ 400 nM | ≥ 400 nM | ≥ 400 nM | – | –
12 | CNC(=O)N1CC2CC1CC2Cn1cc(-c2cnc3ccc(Oc4ccc5nc(C)[nH]c5c4)c(Cl)c3n2)cn1 (centres unmarked) [Compound 313] | 20 to 100 nM | 20 to 100 nM | ≥ 400 nM | 20 to 100 nM | – | –
13 | Cc1nc2ccc(Oc3ccc4ncc(-c5cnn(CC6CN(CC(=O)N7CC(O)C7)C6)c5)nc4c3Cl)cc2[nH]1 [Compound 314] | 20 to 100 nM | 100 to 400 nM | 100 to 400 nM | 20 to 100 nM | – | –
14 | CNC(=O)CN1CC(Cn2cc(-c3cnc4ccc(Oc5ccc6nc(C)[nH]c6c5)c(Cl)c4n3)cn2)C1 [Compound 315] | 20 to 100 nM | 20 to 100 nM | ≥ 400 nM | 20 to 100 nM | – | –
15 | COCCN1CCC(n2cc(-c3cnc4ccc(Oc5ccc6nc(C)[nH]c6c5)c(Cl)c4n3)cn2)CC1 [Compound 316] | 20 to 100 nM | 20 to 100 nM | ≥ 400 nM | 20 to 100 nM | – | –
16 | Cc1nc2ccc(Oc3ccc4ncc(-c5cnn(CC(=O)N6CC(O)C6)c5)nc4c3Cl)cc2[nH]1 [Compound 317] | 20 to 100 nM | ≥ 400 nM | ≥ 400 nM | 100 to 400 nM | – | –
17 | Cc1nc2ccc(Oc3ccc4ncc(-c5cnn(C6(CCO)CCNCC6)c5)nc4c3Cl)cc2[nH]1 [Compound 318] | ≥ 400 nM | ≥ 400 nM | ≥ 400 nM | ≥ 400 nM | – | –
18 | Cc1nc2ccc(Oc3ccc4ncc(-c5cnn(CC(=O)N6CCC6)c5)nc4c3Cl)cc2[nH]1 [Compound 319] | 20 to 100 nM | 20 to 100 nM | ≥ 400 nM | 20 to 100 nM | – | –
19 | Cc1nc2ccc(Oc3ccc4ncc(-c5cnn(CC6CN(CC(=O)N7CCC7)C6)c5)nc4c3Cl)cc2[nH]1 [Compound 320] | 20 to 100 nM | 100 to 400 nM | ≥ 400 nM | 20 to 100 nM | – | –
20 | CNC(=O)N1CCC(n2cc(-c3cnc4ccc(Oc5ccc6nc(C)[nH]c6c5)c(Cl)c4n3)cn2)CC1 [Compound 321] | 20 to 100 nM | 20 to 100 nM | ≥ 400 nM | 20 to 100 nM | – | –
21 | CNC(=O)CN1CCC(n2cc(-c3cnc4ccc(Oc5ccc6nc(C)[nH]c6c5)c(Cl)c4n3)cn2)CC1 [Compound 322] | 20 to 100 nM | 20 to 100 nM | ≥ 400 nM | < 20 nM | – | –
22 | Cc1nc2ccc(Oc3ccc4ncc(-c5cnn([C@H]6C[C@@H](N7CCOCC7)C6)c5)nc4c3Cl)cc2[nH]1 [Compound 323] | < 20 nM | 20 to 100 nM | ≥ 400 nM | 20 to 100 nM | – | –

Row | SMILES | IC50 [1] | IC50 ([2]; UMUC14, 72 h) | IC50 ([3]; DMS-114, 72 h) | IC50 [4] | IC50 ([2]; UMUC14, 72 hours) | IC50 ([3]; 72 hours)
23 | Cc1nc2ccc(Oc3ccc4ncc(-c5cnn([C@H]6C[C@H](N7CCOCC7)C6)c5)nc4c3Cl)cc2[nH]1 [Compound 324] | 20 to 100 nM | 20 to 100 nM | ≥ 400 nM | 20 to 100 nM | – | –
24 | Cc1nc2ccc(Oc3ccc4ncc(-c5cnn(CC6CC(O)C6)c5)nc4c3Cl)cc2[nH]1 (centres unmarked) [Compound 325] | < 20 nM | 20 to 100 nM | ≥ 400 nM | < 20 nM | – | –
25 | Cc1nc2ccc(Oc3ccc4ncc(-c5cnn(CC(N)=O)c5)nc4c3Cl)cc2[nH]1 [Compound 326] | 20 to 100 nM | 100 to 400 nM | ≥ 400 nM | 100 to 400 nM | – | –
26 | Cc1nc2ccc(Oc3ccc4ncc(-c5cnn(CC6CCC(=O)CC6)c5)nc4c3Cl)cc2[nH]1 [Compound 327] | < 20 nM | < 20 nM | ≥ 400 nM | < 20 nM | – | –
27 | Cc1nc2ccc(Oc3ccc4ncc(-c5cnn(CC6CC7CC6CN7C(N)=O)c5)nc4c3Cl)cc2[nH]1 (centres unmarked) [Compound 328] | 20 to 100 nM | 20 to 100 nM | ≥ 400 nM | 20 to 100 nM | – | –
28 | Cc1nc2ccc(Oc3ccc4ncc(-c5cnn(CC6CC7CC6CN7CC(N)=O)c5)nc4c3Cl)cc2[nH]1 (centres unmarked) [Compound 329] | < 20 nM | < 20 nM | 100 to 400 nM | < 20 nM | – | –
29 | Cc1nc2ccc(Oc3ccc4ncc(-c5cnn(C6CCN(CC(N)=O)CC6)c5)nc4c3Cl)cc2[nH]1 [Compound 330] | < 20 nM | 20 to 100 nM | ≥ 400 nM | < 20 nM | – | –
30 | Cc1nc2ccc(Oc3ccc4ncc(-c5cnn(C6CC7CC6CN7C6COC6)c5)nc4c3Cl)cc2[nH]1 (centres unmarked) [Compound 331] | < 20 nM | 20 to 100 nM | ≥ 400 nM | < 20 nM | – | –
31 | Cc1nc2cc(Oc3ccc4ncc(-c5cnn(CC(=O)N6CCC(F)(F)CC6)c5)nc4c3Cl)ccc2[nH]1 [Compound 332] | 20 to 100 nM | 20 to 100 nM | ≥ 400 nM | 20 to 100 nM | – | –
32 | Cc1nc2ccc(Oc3ccc4ncc(-c5cnn(C6CCN(C(C)C)CC6)c5)nc4c3Cl)cc2[nH]1 [Compound 333] | 20 to 100 nM | 20 to 100 nM | ≥ 400 nM | 20 to 100 nM | – | –
33 | Cc1nc2ccc(Oc3c(C)cc4ncc(-c5cnn(CC6CCN(C)CC6)c5)nc4c3Cl)cc2[nH]1 [Compound 334] | ≥ 400 nM | ≥ 400 nM | ≥ 400 nM | ≥ 400 nM | – | –
34 | CO[C@H]1CC[C@H](Cn2cc(-c3cnc4ccc(Oc5ccc6nc(C)[nH]c6c5)c(Cl)c4n3)cn2)CC1 [Compound 335] | 20 to 100 nM | 20 to 100 nM | ≥ 400 nM | 20 to 100 nM | – | –
35 | CO[C@H]1CC[C@@H](Cn2cc(-c3cnc4ccc(Oc5ccc6nc(C)[nH]c6c5)c(Cl)c4n3)cn2)CC1 [Compound 336] | 20 to 100 nM | 20 to 100 nM | ≥ 400 nM | 20 to 100 nM | – | –
36 | Cc1nc2ccc(Oc3ccc4ncc(-c5cnn(C[C@]67C[C@H](CO6)C7)c5)nc4c3Cl)cc2[nH]1 [Compound 337] | 20 to 100 nM | 20 to 100 nM | ≥ 400 nM | 20 to 100 nM | – | –
37 | Cc1nc2ccc(Oc3ccc4ncc(-c5cnn(CC6CCC(N(C)C)CC6)c5)nc4c3Cl)cc2[nH]1 (centres unmarked) [Compound 338] | 20 to 100 nM | 20 to 100 nM | 100 to 400 nM | 20 to 100 nM | – | –
38 | Cc1nc2ccc(Oc3ccc4ncc(-c5cnn(CC6CCC(O)CC6)c5)nc4c3Cl)cc2[nH]1 (centres unmarked) [Compound 339] | < 20 nM | < 20 nM | 100 to 400 nM | < 20 nM | – | –
39 | Cc1nc2ccc(Oc3ccc4ncc(-c5cnn(C6CCN(C7COC7)CC6)c5)nc4c3Cl)cc2[nH]1 [Compound 340] | < 20 nM | 20 to 100 nM | 100 to 400 nM | < 20 nM | – | –
40 | Clc1c(Oc2ccn3cncc3c2)ccc2ncc(-c3cnn(CC4CCNCC4)c3)nc12 [Compound 341] | ≥ 400 nM | ≥ 400 nM | ≥ 400 nM | ≥ 400 nM | – | –
41 | Cc1nc2ccc(Oc3ccc4ncc(-c5cnn(C6CC7CC6CN7C(C)C)c5)nc4c3Cl)cc2[nH]1 (centres unmarked) [Compound 342] | 20 to 100 nM | 20 to 100 nM | ≥ 400 nM | 20 to 100 nM | – | –
42 | Cc1nc2ccc(Oc3ccc4ncc(-c5cnn(CC67COC(C6)C7)c5)nc4c3Cl)cc2[nH]1 [Compound 343] | < 20 nM | 20 to 100 nM | ≥ 400 nM | < 20 nM | – | –
43 | Cc1nc2ccc(Oc3ccc4ncc(-c5cnn(CC6CN6)c5)nc4c3Cl)cc2[nH]1 (centres unmarked) [Compound 344] | 100 to 400 nM | – | – | 100 to 400 nM | 100 to 400 nM | ≥ 400 nM
44 | Cc1cc2cc(Oc3ccc4ncc(-c5cnn(CC6CCN(C)CC6)c5)nc4c3Cl)ccn2n1 [Compound 345] | ≥ 400 nM | ≥ 400 nM | ≥ 400 nM | ≥ 400 nM | – | –
